Where two headings read alike, the source gives them in different places.
Legend:
[1] = molecular target: SARS-CoV-2 Papain-like (PLpro) protease (Severe acute respiratory syndrome coronavirus 2, UniProt P0DTD1); assay: biochemical
[2] = tested on: SARS-CoV-2 replicon; assay: microbe, parasite or virus in culture; assay type: cell-based
[3] = tested on: SARS-CoV-2 USA-WA1/2020; assay: SARS-CoV-2 Cellular Assay (Vero 76); assay type: cell-based; conditions: Severe acute respiratory syndrome coronavirus 2, Vero 76, 144 h, read-out: SARS-COV-2 BSL3 EC50
Description: SARS-CoV-2 Cellular Assay (Vero 76): Test compounds are serially diluted using eight half-log dilutions in test medium (MEM supplemented with 2% FBS and 50 µg/mL gentamicin). Each dilution is added to 5 wells of a 96-well plate with 80-100% confluent Vero 76 cells. Three wells of each dilution are infected with virus (SARS-CoV-2 USA-WA1/2020), and two wells remain uninfected as toxicity controls. Six wells are infected and untreated as virus controls, and six wells are uninfected and untreated as cell controls. Viruses are prepared to achieve the lowest possible multiplicity of infection (MOI˜0.002) that would yield >80% cytopathic effect (CPE) at 6 days. Plates are incubated at 37±2° C., 5% CO2. For neutral red assay, on day 6 post-infection, once untreated virus control wells reach maximum CPE, plates are stained with neutral red dye for approximately 2 hours (±15 minutes). Supernatant dye is removed, and wells are rinsed with PBS, and the incorporated dye is extracted in 50:50 Sorensen citrate buffer/ethanol for >30 minutes and the optical density is read on a spectrophotometer at 540 nm. Optical densities are converted to percent of cell controls and normalized to the virus control, then the concentration of test compound required to inhibit CPE by 50% (EC50) is calculated by regression analysis. The concentration of compound that would cause 50% cell death in the absence of virus was similarly calculated (CC50). EC50 ranges are reported as follows: A<1 µM; B 1-10 µM; C 10-50 µM; D>50 µM.

[4] = ubiquitin-fluorophore substrate (Ub-R110), 30 min preincubation at RT, run in duplicate, read-out: PLpro IC50
[5] = Severe acute respiratory syndrome coronavirus 2, Huh-7, 20 h; read-out: SARS-COV-2 replicon EC50
[6] = Severe acute respiratory syndrome coronavirus 2, Huh-7, 20 h, read-out: SARS-COV-2 replicon EC50

Structure (SMILES) | IC50 [1, 4] [nM] | further results
Cc1ccc2cc1C(=O)N[C@H](C)c1cc(cc3ccccc13)C=CCCCN(C(=O)OCc1ccccc1)C2 [Example 1] |  | IC50 [1]: > 10000 nM
Cc1ccc2cc1C(=O)N[C@H](C)c1cc(cc3ccccc13)CCCCCNC2 [Example 2] | 100 to 1000 | EC50 [2, 5]: 1000 to 10000 nM; EC50 [3]: 1000 to 10000 nM
Cc1ccc2cc1C(=O)N[C@H](C)c1cc(cc3ccccc13)C=CCCN(C(=O)OCc1ccccc1)C2 [Example 3] | > 10000 | 
Cc1ccc2cc1C(=O)N[C@H](C)c1cc(cc3ccccc13)CCCCNC2 [Example 4] | 1000 to 10000 | 
Cc1ccc2cc1C(=O)N[C@H](C)c1cc(cc3ccccc13)CCCCCCNC2 [Example 5] | 100 to 1000 | EC50 [2, 5]: 1000 to 10000 nM
Cc1ccc2cc1C(=O)N[C@H](C)c1cc(cc3ccccc13)C=CCCCCC2 [Example 6] | > 10000 | 
Cc1ccc2cc1C(=O)N[C@H](C)c1c(ccc3ccccc13)CCCCNC2 [Example 7] | 1000 to 10000 | 
Cc1ccc2cc1C(=O)N[C@H](C)c1c(ccc3ccccc13)CCCCCNC2 [Example 8] | > 10000 | 
Cc1ccc2cc1C(=O)N[C@H](C)c1cc(cc3ccccc13)C(=O)N1CCN(CC1)C(=O)CC2 [Example 9] | > 10000 | 
Cc1ccc2cc1C(=O)N[C@H](C)c1cc(cc3ccccc13)C(=O)N(C)CCCN(C)C(=O)CC2 [Example 11] | > 10000 | 
Cc1ccc2cc1C(=O)N[C@H](C)c1cc(cc3ccccc13)C(=O)N(C)CCCC(=O)NC2 [Example 12] | > 10000 | 
Cc1ccc2cc1C(=O)N[C@H](C)c1cc(cc3ccccc13)-c1cn(nn1)CCCC(=O)NC2 [Example 13] | > 10000 | 
Cc1ccc2cc1C(=O)N[C@H](C)c1cc(cc3ccccc13)-c1cn(nn1)CCCCC(=O)NC2 [Example 14] | 100 to 1000 | EC50 [2, 5]: > 50000 nM
Cc1ccc2cc1C(=O)N[C@H](C)c1cc(cc3ccccc13)N1CCN(CCCC(=O)NC2)CC1 [Example 15] | 1000 to 10000 | 
Cc1ccc2cc1C(=O)N[C@H](C)c1cc(cc3ccccc13)N1CCN(CCCCC(=O)NC2)CC1 [Example 16] | > 10000 | 
Cc1ccc2cc1C(=O)N[C@H](C)c1cc(cc3ccccc13)-c1cn(nn1)CCCCNC2 [Example 17] |  | IC50 [1]: 100 to 1000 nM; EC50 [2, 6]: 10000 to 50000 nM
COC(=O)/C=C/C(=O)NNC(=O)CCc1ccc2cc1C(=O)N[C@H](C)c1cc(cc3ccccc13)CCCCCCC2 [Example 18] | 100 to 1000 | EC50 [2, 5]: 10000 to 50000 nM; EC50 [3]: 1000 to 10000 nM
COC(=O)/C=C/C(=O)NNC(=O)CCc1ccc2cc1C(=O)N[C@H](C)c1cc(cc3ccccc13)C=CCCCCC2 [Example 19] | < 100 | EC50 [2, 5]: 1000 to 10000 nM
C[C@H]1NC(=O)c2cc(ccc2CCC(=O)NN)CCCCCC=Cc2cc1c1ccccc1c2 [Example 20] | > 10000 | 
C[C@H]1NC(=O)c2cc(ccc2CCC(=O)NNC(=O)OC(C)(C)C)CCCCCC=Cc2cc1c1ccccc1c2 [Example 21] | > 10000 | 

Structure (SMILES) | IC50 [1, 4] [nM] | further results
COC(=O)/C=C/C(=O)NNC(=O)CCc1ccc2cc1C(=O)N[C@H](C)c1cccc(c1)C=CCCCCC2 [Example 22] | 1000 to 10000 | 
COC(=O)/C=C/C(=O)NNC(=O)CCc1ccc2cc1C(=O)N[C@H](C)c1cc(cc3ccccc13)CCCCCCS(=O)(=O)C2 [Example 23] | < 100 | EC50 [2, 5]: 10000 to 50000 nM
COC(=O)/C=C/C(=O)NNC(=O)CCc1ccc2cc1C(=O)N[C@H](C)c1cc(cc3ccccc13)CCCCCS(=O)(=O)C2 [Example 24] | < 100 | EC50 [2, 5]: 10000 to 50000 nM
COC(=O)/C=C/C(=O)NNC(=O)CCc1ccc2cc1C(=O)N[C@H](C)c1cc(cc3ccccc13)CCCCCNC2=O [Example 25] |  | EC50 [2, 6]: < 1000 nM; EC50 [3]: < 1000 nM
COC(=O)/C=C/C(=O)NNC(=O)CCc1ccc2cc1C(=O)N[C@H](C)c1cc(cc3ccccc13)CCCCCCNC2=O [Example 26] | < 100 | 
COC(=O)/C=C/C(=O)NNC(=O)CCc1ccc2cc1C(=O)N[C@H](C)c1cc(cc3ccccc13)C=CCCCCNC2=O [Example 27] | < 100 | 
COC(=O)/C=C/C(=O)NNC(=O)CCc1ccc2cc1C(=O)N[C@H](C)c1cc(cc3ccccc13)C=CCCCNC2=O [Example 28] | < 100 | 
COC(=O)/C=C/C(=O)NNC(=O)CCc1ccc2cc1C(=O)N[C@H](C)c1cc(cc3ccccc13)C=CCCCCN(C)C2=O [Example 29] | < 100 | 
COC(=O)/C=C/C(=O)NNC(=O)CCc1ccc2cc1C(=O)N[C@H](C)c1cc(cc3ccccc13)CCCCCCN(C)C2=O [Example 30] | < 100 | EC50 [2, 5]: 1000 to 10000 nM; EC50 [3]: < 1000 nM
COC(=O)/C=C/C(=O)NNC(=O)CCc1ccc2cc1C(=O)N[C@H](C)c1cc(cc3ccccc13)CCCCCN(C)C2=O [Example 31] | < 100 | 
COC(=O)/C=C/C(=O)NNC(=O)CCc1ccc2cc1C(=O)N[C@H](C)c1cc(cc3ccccc13)C=CCCCN(C)C2=O [Example 32] | < 100 | 
COC(=O)/C=C/C(=O)NNC(=O)CCc1ccc2cc1C(=O)N[C@H](C)c1cccc3ccc(cc13)CCCCNC2=O [Example 34] | 100 to 1000 | 
COC(=O)/C=C/C(=O)NNC(=O)CCc1ccc2cc1C(=O)N[C@H](C)c1cc(cc3ccccc13)CCCCCNS2(=O)=O [Example 35] | < 100 | 
COC(=O)/C=C/C(=O)NNC(=O)CCc1ccc2cc1C(=O)N[C@H](C)c1cc(cc3c1CCCC3)CCCCCNS2(=O)=O [Example 36] | 100 to 1000 | 
COC(=O)/C=C/C(=O)NNC(=O)CCc1ccc2cc1C(=O)N[C@H](C)c1cc(cc3ccccc13)CCCCOCCNC2=O [Example 37] | < 100 | EC50 [2, 5]: < 1000 nM; EC50 [3]: < 1000 nM
COC(=O)/C=C/C(=O)N(NC(=O)CCc1ccc2cc1C(=O)N[C@H](C)c1cc(cc3ccccc13)CCCCOCCNC2=O)C(=O)/C=C/C(=O)OC [Example 38] | < 100 | 
COC(=O)/C=C/C(=O)NNC(=O)CCc1ccc2cc1C(=O)N[C@H](C)c1cc(cc3ccccc13)CCCCCC(=O)N2 [Example 39] | < 100 | EC50 [2, 5]: 1000 to 10000 nM; EC50 [3]: < 1000 nM
COC(=O)/C=C/C(=O)NNC(=O)CCc1ccc2cc1C(=O)N[C@H](C)c1cc(cc3ccccc13)CCCCOC(=O)N2 [Example 40] | < 100 | EC50 [2, 5]: 1000 to 10000 nM; EC50 [3]: < 1000 nM
C[C@H]1NC(=O)c2cc(ccc2C#N)C(=O)NCCCCCc2cc1c1ccccc1c2 [Example 41] | 1000 to 10000 | 
COC(=O)/C=C/CNC(=O)C(=O)NCc1ccc2cc1C(=O)N[C@H](C)c1cc(cc3ccccc13)CCCCCNC2=O [Example 42, methyl (R,E)-4-(2-(((2-methyl-4,6-dioxo-3,7-diaza-1(1,3)-naphthalena-5(1,3)-benzenacyclododecaphane-5^6-yl)methyl)amino)-2-oxoacetamido)but-2-enoate] | > 10000 | 

— patent publication US20240207224A1, “MACROCYCLIC CHALCONE-AMIDE DERIVED ANTIVIRAL AGENTS” (priority 2022, published 2024)
